The series can be described thus: gradient 5% acetonitrile 3 min, to 50% in 2 min, to 85% in 15 min, held 3 min, 100 µL/min. The settings on record: column: Zorbax Extend-C18 2.1 x 50 mm; eluents: water / acetonitrile, 0.1% formic acid. The procedure, abridged: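 In both positive and negative ionization mode, a quadrupole time-of-flight mass spectrometer coupled to HPLC analyzed pure standards run in mixtures of ~100 molecules. The Zorbax Extend-C18 column (2.1 × 50 mm, 1.8 μm) was operated at 100 μL/min with water and acetonitrile, each containing 0.1% formic acid. The dead volume was 40 μL and the dwell volume 900 μL. Retention time came from adduct peaks that were computationally picked and individually inspected by hand.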
Take `CCCc1ccc(S(=O)(=O)NCc2c(-c3ccccc3)nc3sc(C)nn23)cc1`: the RP-LC retention time turned out to be 1030 s. Under `COc1cccc(OCC2c3ccsc3CCN2C(=O)CN(C(C)=O)C(C)C)c1` (stereo not given) stands 808 s; under `CCc1ccc(CNC(=O)Cn2c(C)cc(-c3nnc(C4CCC4)o3)c2C)cc1`, 965 s. With `O=C1NC2(CCN(C(=O)NCc3ccc(F)cc3)CC2)Nc2cc(Cl)ccc21`, the RP-LC retention time turned out to be 740 s. In the case of `CC(=O)NCC(=O)NCc1nn(CC(C)C)c2ccccc12`, the RP-LC retention time was 670 s. To `CCNC(=O)N(CCOC)CC(=O)N1CCc2sccc2C1COc1ccccc1` (stereo not given) belongs 815 s; to `COc1cc(NC(=O)c2cc3c(n(-c4ccc(F)cc4)c2=O)CCCC3=O)cc(OC)c1`, 958 s. As to `CS(=O)(=O)N[C@H]1C[C@@H]2C[C@H]1N(C(=O)Cc1c(F)cccc1Cl)C2`, the RP-LC retention time was determined as 717 s. For `CCc1noc(C2(NC(=O)c3cccc(F)c3)CCCCC2)n1`, the RP-LC retention time amounted to 949 s.

Consider `Cc1ccc(N(C)S(=O)(=O)c2ccc3c(c2)CCCC(=O)N3)cc1C`, for which the RP-LC retention time was 854 s. Turning to `COC(=O)c1c(NCC2CC2)c2cccc(Cl)c2[nH]c1=O`, the RP-LC retention time is 757 s. Turning to `CN(C)C(=O)c1ccc2c(c1)N(CC(=O)NC1CCCCCCC1)C(=O)CS2`, the RP-LC retention time amounted to 769 s.

Turning to `CCS(=O)(=O)NCC(c1cccnc1)N1CCN(c2ccccc2F)CC1` (stereo not given), the RP-LC retention time is 561 s. To `CCOC(=O)CCNC(=O)N1CCC(OC2CCN(Cc3ccccc3)CC2)CC1` belongs 607 s; to `CC(C)n1cc(S(=O)(=O)NCc2ccc(C(F)(F)F)cc2)c2cccnc21`, 974 s; to `CCc1nc2c(NC(=O)c3ccc(C)cc3C)cccn2n1`, 920 s. As for `Cc1cc(C)c2sc(N(Cc3cccnc3)C(=O)c3snnc3C)nc2c1`, the RP-LC retention time is 823 s. Under `Cc1ccc(NC(=O)N2CCN(Cc3nc4ccccc4o3)CC2)cc1` stands 689 s; under `N#Cc1ccc(NC(=O)c2noc3c2CCCCC3)cc1`, 995 s. Under `CCNC(=O)c1cn(-c2ccc(-c3nc(C(C)(C)C)no3)cn2)cn1` stands 858 s; under `Cc1ccc(CNC(=O)C2(C)CCN(S(=O)(=O)c3ccc(C4CCCCC4)cc3)CC2)cc1`, 1270 s; under `CC1CCN(S(=O)(=O)c2ccc(-c3nnc(C(=O)NCc4ccc(F)cc4)o3)cc2)CC1`, 1040 s. Under `CCC(C)NC(=O)C1CC(=O)N(c2ccc3c(c2)CCN3C(=O)C2CC2)C1` (stereo not given) stands 686 s; under `COC(=O)CNC(=O)NC(C(=O)N1CCc2ccccc21)C(C)C` (stereo not given), 740 s; under `CCN1C(=O)c2cccnc2Sc2cc(CNC(=O)COc3cccc(C)c3)ccc21`, 846 s. As to `COc1ccc(N2CCN(C(=O)C3CCc4nc(N5CCCC5)ncc4C3)CC2)cc1` (stereo not given), the RP-LC retention time was determined as 626 s.

In the case of `Cc1ccc2nc(-c3ccc(Cl)cc3)c(Nc3ccc(Cl)cc3)n2c1`, the RP-LC retention time came out at 831 s. `COc1cccc(-c2noc(Cn3c(=O)n(-c4ccccc4F)c(=O)c4sccc43)n2)c1` returned an RP-LC retention time of 957 s. The molecule `Cc1ccc(-n2nnnc2CNC(=O)Nc2ccc3c(c2)OCO3)cc1C` came in with an RP-LC retention time of 734 s. On to `O=S(=O)(c1ccc2nc(N3CCN(Cc4ccc5c(c4)OCO5)CC3)cnc2c1)N1CCCCC1`, for which the RP-LC retention time came out at 728 s. To `O=C([C@@H]1C[C@H](F)CN1C(=O)Cc1ccsc1)N1CCCCC1` belongs 657 s; to `O=C(NCCc1ccccc1)N1C[C@@H]2C[C@H](NS(=O)(=O)c3cccnc3)[C@H]1C2`, 679 s. Under `CCn1nccc1C(=O)Nc1nc(-c2ccc(OC)cc2OC)cs1` stands 926 s; under `O=C(CC1CCN(C(=O)Nc2ccccc2F)CC1)N1CCCCC1`, 709 s. Under `CC(C(=O)OC1CC2CCC(C1)N2C)c1ccc(Br)cc1` (stereo not given) stands 785 s; under `COCc1cc(=O)n(Cc2ccccc2)c(N2CCCC2)n1`, 777 s.

Consider `CCN(CC)C(=O)[C@]1(c2ccccc2)C[C@@H]1CN`, for which the RP-LC retention time was found to be 655 s. Under `COc1ccc(OC)c(NC(=O)Cc2cccn2-c2ccc(Cl)cc2)c1` stands 1080 s; under `Cc1ccccc1-c1noc(CSc2nc3cc4c(cc3c(=O)n2Cc2ccccc2)OCO4)n1`, 1300 s; under `COc1ccc(NC(=O)c2c(N3CCCC3=O)c3cc(F)ccc3n2C)cc1`, 922 s. To `CCc1noc(-c2ccc(SCC(=O)N3CCC(C(N)=O)CC3)nc2)n1` belongs 639 s. To `Cc1ccc(CNC(=O)c2ccc3c(c2)N(C(=O)c2ccc(F)cc2)CC3)o1` belongs 883 s; to `COc1ccc(NC(=O)N2CCN(C3=CC4=NCC(C)N4C=N3)CC2)cc1` (stereo not given), 599 s. As for `Cn1c(=O)n(C)c2cc(N3CCCCC3)c(NC(=O)NCc3ccc(F)cc3)cc21`, the RP-LC retention time stood at 659 s. To `c1ccc(-c2n[nH]c(CC3CCNC3)n2)cc1` (stereo not given) belongs 570 s. To `CCOc1ccc2ncc(C#N)c(Nc3cc(OC)c(OC)c(OC)c3)c2c1` belongs 607 s; to `O=S(=O)(c1cccc2nsnc12)N1CCC(Cc2nc(-c3cccnc3)n[nH]2)C1` (stereo not given), 633 s.

`Cc1cc2[nH]c(=O)[nH]c2cc1S(=O)(=O)N1CCN(Cc2ccccc2)CC1`: the RP-LC retention time was found to be 548 s. Under `COCc1nncn1C1CCN(S(=O)(=O)c2cc(Cl)ccc2OC)CC1` stands 736 s; under `CCc1noc(-c2cccnc2N2CCCN(Cc3c(F)cccc3Cl)CC2)n1`, 668 s.

Turning to `COC(=O)c1cccc(NC(=O)C2CCc3nc(N4CCOCC4)ncc3C2)c1` (stereo not given), the RP-LC retention time is 746 s. To `O=C(Cn1ncc2c(c1=O)N(C1CC1)C(=O)CS2)N1CCCc2ccccc21` belongs 745 s; to `CN(C)CCOc1ccc(I)cc1Cc1ccccc1`, 739 s; to `O=C(c1ccccc1F)N1CCN(S(=O)(=O)c2cc3c4c(c2)CCC(=O)N4CCC3)CC1`, 762 s. Under `Cc1c(-c2noc(-c3ccc(F)cc3)n2)nnn1-c1ccc(F)cc1` stands 1060 s; under `COC(=O)c1cc(S(=O)(=O)N2CCCC2C(=O)Nc2ccc(F)cc2Cl)cn1C` (stereo not given), 938 s; under `CC(C)(C)NC(=O)N1CCC(CNC(=O)C(=O)Nc2cc(F)ccc2F)CC1`, 811 s. Regarding `Cc1nc(C2CCCN2Cc2ccc(F)cc2F)n[nH]1` (stereo not given), the RP-LC retention time came out at 560 s. Under `O=C(c1nc2ccccc2s1)N1CCC(COCc2ccccc2)CC1` stands 1150 s. To `CN(C)CCNC(=O)c1ccc2c(c1)N(Cc1ccccc1)CCS2` belongs 689 s.

The record behind these values is the METLIN SMRT retention time set (Domingo-Almenara et al. 2019).
